Data reported in patent US11512073B2, “Benzimidazole derivatives, pharmaceutical composition comprising the same, and use thereof” (Chongqing University of Arts and Sciences, priority 2020, dated 2022).
Residues, ends and D or L forms follow the SMILES beside them. *: point of attachment. Cbz = O=C(OCc1ccccc1)*; CH2F = FC*

System: TNBC cells
Experiment: MTT cell viability assay, statements for both TNBC lines
Type: cell-based, Human
Settings: Z-VAD-FMK 20 μM with compound 7a 20 μM, 48 h
Description: Compounds were dissolved in a hydrous dimethylsulfoxide (DMSO, Life technologies) to obtain a 50 mM stock solution, which was then added to the culture medium at a concentration range of 6.25-100 μM. […] Z-VAD-FMK was purchased from Selleckchem (Houston, Tex.); The reagents including 3-(4,5-dimethylthiazol-2-yl)-2,5-diphenyltetrazolium bromide (MTT), dimethyl sulfoxide (DMSO), penicillin, streptomycin, propidium iodide (PI) were purchased from Sigma-Aldrich (MO, USA); All the primary antibodies used in this study were from Cell Signaling Technology (MA, USA) and the secondary antibodies were from LI-COR Biosciences (NE, USA).
Human triple negative breast cancer cell lines MDA-MB-231 and MDA-MB-468 were purchased from the American Type Culture Collection (ATCC, VA, USA). These cells were cultured in high-glucose DMEM (Gibco, USA) supplemented with 10% fetal bovine serum (FBS, Gibco) and 1% penicillin/streptomycin (Gibco) at 37° C. in a humidified incubator containing 5% CO2.
The antiproliferative activity of compounds was measured with the MTT assay. […] The absorbance value was determined at 570 nm using a microplate reader (Bio-Tek, VT, USA). Data were analyzed by GraphPad Prism 6. […]

COC(=O)C[C@H](NC(=O)[C@H](C)NC(=O)[C@@H](NC(=O)OCc1ccccc1)C(C)C)C(=O)CF [Z-VAD-FMK, reference compound] (Cbz-Val-Ala-Asp(OMe)-CH2F)
rescue of compound 7a-induced apoptosis (cell viability): partially rescue cell apoptosis induced by compound 7a
